From PMC4470815, “Selective Cytotoxicity of 1,3,4-Thiadiazolium Mesoionic Derivatives on Hepatocarcinoma Cells (HepG2)” (PLoS ONE, 2015)

Biological target: T1, ABCG2 (Homo sapiens, UniProt Q9UNQ0)
T1 sequence (Q9UNQ0 1-655): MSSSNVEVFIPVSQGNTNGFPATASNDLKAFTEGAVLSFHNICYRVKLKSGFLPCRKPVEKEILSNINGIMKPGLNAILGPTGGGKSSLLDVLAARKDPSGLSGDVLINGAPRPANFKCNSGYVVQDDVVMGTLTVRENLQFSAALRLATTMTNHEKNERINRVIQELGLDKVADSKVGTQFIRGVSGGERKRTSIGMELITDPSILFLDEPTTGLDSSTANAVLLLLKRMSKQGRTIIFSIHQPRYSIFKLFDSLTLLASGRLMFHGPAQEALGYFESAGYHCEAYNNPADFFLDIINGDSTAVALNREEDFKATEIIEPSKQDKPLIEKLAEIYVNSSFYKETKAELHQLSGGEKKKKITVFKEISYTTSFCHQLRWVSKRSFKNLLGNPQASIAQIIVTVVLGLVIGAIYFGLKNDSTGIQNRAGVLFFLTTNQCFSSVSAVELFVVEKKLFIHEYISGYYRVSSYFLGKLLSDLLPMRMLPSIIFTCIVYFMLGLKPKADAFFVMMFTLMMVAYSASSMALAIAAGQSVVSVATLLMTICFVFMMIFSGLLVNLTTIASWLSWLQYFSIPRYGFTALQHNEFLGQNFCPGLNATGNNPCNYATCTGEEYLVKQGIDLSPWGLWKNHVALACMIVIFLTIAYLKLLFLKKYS
Test: inhibition of mitoxantrone efflux in HEK293ABCG2 cells, flow cytometry
Assay type: cell-based
Conditions: read-out: ABCG2 / EC50

O=[N+]([O-])c1ccc(/C=C/c2sc(Nc3ccccc3)n[n+]2-c2ccccc2)cc1 [MI-D, 4-phenyl-5-(4-nitrocinnamoyl)-1,3,4-thiadiazolium-2-phenylamine chloride]
IC50: 24.3 ± 9.6 µM

Oc1ccc(/C=C/c2sc(Nc3ccccc3)n[n+]2-c2ccccc2)cc1 [MI-J]
IC50: 8.5 ± 4.8 µM
